One test concerns NQO1-ARE. Description: NQO1-ARE luciferase reporter assay in HuH7 cells (Nrf2 transcriptional activity). It counts as cell-based. As to conditions: Homo sapiens, Huh-7, 62.5 nM compound, 18 h, Firefly normalized to Renilla, over DMSO vehicle control. The text has this:
NQO1-ARE Luciferase Reporter Assay.
This assay allows for quantitative assessment of the endogenous activity of the Nrf2 transcription factor in cultured mammalian cells. Expression of Firefly luciferase from NQO1-ARE luciferase reporter plasmid is controlled by binding of Nrf2 to a specific enhancer sequence corresponding to the antioxidant response element (ARE) that was identified in the promoter region of the human NADPH:quinone oxidoreductase 1 (NQO1) gene (Xie et al., 1995). The plasmid was constructed by inserting a sequence:
encompassing the human NQO1-ARE into the pLuc-MCS vector using HindIII/XhoI cloning sites (GenScript Corp., Piscataway, N.J.). The assay is performed in HuH7 cells maintained in DMEM (Invitrogen) supplemented with 10% FBS and 100 U/ml (each) of penicillin and streptomycin. For the assay, cells are plated in 96-well plates at 17,000 cells per well. Twenty four hours later, the cells are co-transfected with 50 ng each of NQO1-ARE reporter plasmid and pRL-TK plasmid using Lipofectamine 2000 transfection reagent (Invitrogen). pRL-TK plasmid constitutively expresses Renilla luciferase and is used as an internal control for normalization of transfection levels. Thirty hours after transfection, the cells are treated with compounds (at concentrations ranging from 0 to 1 μM) for eighteen hours. Firefly and Renilla luciferase activity is assayed by Dual-Glo Luciferase Assay (Promega Corp., Madison, Wis.), the luminescence signal is measured on an L-Max II luminometer (Molecular Devices). Firefly luciferase activity is normalized to the Renilla activity, and fold induction over a vehicle control (DMSO) of normalized Firefly activity is calculated. The fold induction at 62.5 nM concentration is used for comparing relative potencies of compounds to induce Nrf2 transcriptional activity. See Xie et al., 1995, which is incorporated herein by reference.
In general terms: A reporter such as luciferase makes a cellular process visible.

Test [1] relates to IFNγ-induced NO production in RAW264.7. Description: Suppression of IFNγ-induced NO production in RAW264.7 mouse macrophages (Griess reagent, normalized to WST-1 cell viability). It counts as cell-based. Particulars: RAW264.7 cells, 2 h pre-treatment with drug (0-200 nM), then IFNγ for 24 h. The essentials: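 RAW264.7 cells pre-treated 2 h with compound (0-200 nM), then stimulated 24 h with recombinant mouse IFNγ. NO in medium measured by Griess reagent, viability by WST-1; IC50 from suppression of IFNγ-induced NO normalized to viability.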
(In general: Nitrite, measured by Griess reagent, commonly stands in for NO production.)

Structures are written as SMILES.

The fold induction is the signal under treatment as a multiple of the control signal. Lower therefore signals a weak induction. For orientation: IC50 means the concentration that gives 50% inhibition. Compound `COC(=O)[C@]12CCC(C)(C)C[C@H]1[C@H]1C(=O)C=C3[C@@]4(C)C=C(C#N)C(=O)[C@@H](C)[C@@H]4CC[C@@]3(C)[C@]1(C)CC2` [TX63435] had a fold induction at 0.0625 µM in the test with NQO1-ARE of 7.2. Besides, the concentration for half-maximal inhibition (IC50) in test [1] came out at 1 nM.

`C[C@@H]1C(=O)C(C#N)=C[C@]2(C)C3=CC(=O)[C@@H]4[C@@H]5CC(C)(C)CC[C@]5(C(=O)O)CC[C@@]4(C)[C@]3(C)CC[C@@H]12` [TX63520] registered a fold induction at 0.0625 µM with NQO1-ARE of 5.3. In test [1], the IC50 is 10.1 nM.

Compound `C[C@@H]1C(=O)C(C#N)=C[C@]2(C)C3=CC(=O)[C@@H]4[C@@H]5CC(C)(C)CC[C@]5(C(=O)n5ccnc5)CC[C@@]4(C)[C@]3(C)CC[C@@H]12` [TX63522] yielded a fold induction at 0.0625 µM in the test with NQO1-ARE of 4.1. Moreover, the concentration for half-maximal inhibition (IC50) in test [1] worked out at 0.4 nM.

The compound `C[C@@H]1C(=O)C(C#N)=C[C@]2(C)C3=CC(=O)[C@@H]4[C@@H]5CC(C)(C)CC[C@]5(C(=O)NCC(F)(F)F)CC[C@@]4(C)[C@]3(C)CC[C@@H]12` [TX63523] yielded a fold induction at 0.0625 µM in the test on NQO1-ARE of 5.6. In addition, the IC50 in test [1] came to 1 nM.

The compound `C[C@@H]1C(=O)C(C#N)=C[C@]2(C)C3=CC(=O)[C@@H]4[C@@H]5CC(C)(C)CC[C@]5(CO)CC[C@@]4(C)[C@]3(C)CC[C@@H]12` [TX63545] returned a fold induction at 0.0625 µM with NQO1-ARE of 7.2. For the same compound, in test [1], the half-inhibitory concentration (IC50) worked out at 0.7 nM.

In the test with NQO1-ARE, `C[C@@H]1C(=O)C(C#N)=C[C@]2(C)C3=CC(=O)[C@]45OC(=O)[C@@]6(CCC(C)(C)C[C@H]64)CC[C@@]5(C)[C@]3(C)CC[C@@H]12` [TX63555] displayed a fold induction at 0.0625 µM of 6.1. Besides, the concentration for half-maximal inhibition (IC50) in test [1] turned out to be 1.4 nM.

`Cc1nnc([C@]23CCC(C)(C)C[C@H]2[C@H]2C(=O)C=C4[C@@]5(C)C=C(C#N)C(=O)[C@@H](C)[C@@H]5CC[C@@]4(C)[C@]2(C)CC3)o1` [TX63616] had a fold induction at 0.0625 µM in the test with NQO1-ARE of 4.4. For the same compound, the 50% inhibitory concentration (IC50) in test [1] was 0.7 nM.

On to `C[C@@H]1C(=O)C(C#N)=C[C@]2(C)C3=CC(=O)[C@@H]4[C@@H]5CC(C)(C)CC[C@]5(NC(=O)C(C)(F)F)CC[C@@]4(C)[C@]3(C)CC[C@@H]12` [TX63682], for which the fold induction at 0.0625 µM with NQO1-ARE was 5.7. In addition, the IC50 in test [1] is 1.1 nM.

In the test with NQO1-ARE, `COC(=O)[C@]12CCC(C)(C)C[C@H]1[C@H]1C(=O)C[C@@H]3[C@@]4(C)C=C(C#N)C(=O)[C@@H](C)[C@@H]4CC[C@@]3(C)[C@]1(C)CC2` [TX63749] returned a fold induction at 0.0625 µM of 2.3. Also, in test [1], the IC50 is 3 nM.
